Source: the supplement of paper PMC10307832

Experiments:
Test in all cases: relative viability (nuclei count vs DMSO), 5 days (fraction); higher = more cells survive
[1] = compound: CCOC(=O)CCNc1cc(N2CCc3ccccc3CC2)nc(-c2ccccn2)n1 [GSK-J4] + CCNC(=O)c1noc(-c2cc(C(C)C)c(O)cc2O)c1-c1ccc(CN2CCOCC2)cc1 [Luminespib] (partner 0.01 µM)
How it was run: (§1)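 Medians of duplicate plates are given as relative viability. That measure is the nuclei count in treated wells divided by the count in vehicle wells. Counts were taken on 4× images of lung cancer cell lines in 1536-well plates, 5 days after pin-tool dosing the day after seeding with one drug alone or a fixed anchor-drug dose plus five library-drug doses (not always all listed) in √10 steps.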

[2] = compound: CCOC(=O)CCNc1cc(N2CCc3ccccc3CC2)nc(-c2ccccn2)n1 [GSK-J4] + Nc1ncn([C@H]2C[C@H](O)[C@@H](CO)O2)c(=O)n1 [Decitabine] (partner 2 µM)
How it was run: as §1

[3] = compound: CN1CCC(CC1)OC2=CC(=C(C=C2)NC3=NC=C4C(=N3)N(C(=O)N4C)C5CCCC5)OC [AZ3146] + C[C@]1(O)C[C@@H](c2nc(-c3ccc4ccc(-c5ccccc5)nc4c3)c3c(N)nccn32)C1 [Linsitinib] (partner 1 µM)
How it was run: as §1

[4] = compound: CCOC(=O)CCNc1cc(N2CCc3ccccc3CC2)nc(-c2ccccn2)n1 [GSK-J4] + N=C(N)NC(=N)NCCc1ccccc1 [Phenformin] (partner 250 µM)
How it was run: as §1

Cell Line	relative viability ([1]; first compound 0.5 µM)	relative viability ([1]; first compound 1.581 µM)	relative viability ([1]; first compound 5 µM)	relative viability ([1]; first compound 15.81 µM)	relative viability ([1]; first compound 50 µM)	relative viability ([2]; first compound 0.5 µM)	relative viability ([2]; first compound 1.581 µM)	relative viability ([2]; first compound 5 µM)	relative viability ([2]; first compound 15.81 µM)	relative viability ([2]; first compound 50 µM)	relative viability ([3]; first compound 0.08 µM)	relative viability ([3]; first compound 0.253 µM)	relative viability ([3]; first compound 0.8 µM)	relative viability ([3]; first compound 2.53 µM)	relative viability ([3]; first compound 8 µM)	relative viability ([4]; first compound 0.5 µM)	relative viability ([4]; first compound 1.581 µM)	relative viability ([4]; first compound 5 µM)	relative viability ([4]; first compound 15.81 µM)	relative viability ([4]; first compound 50 µM)
NCI-H1437	1.05	1.1	1.1	1.03	0.739	0.574	0.363	0.564	0.552	0.358	0.967	0.996	1.01	1.04	1.03	0.319	0.263	0.308	0.371	0.25
PC-14	0.216	0.159	0.151	0.126	0.125	0.231	0.218	0.259	0.232	0.268	1.05	0.995	0.98	1.03	0.941	0.624	0.555	0.432	0.537	0.53
LOU-NH91	0.347	0.329	0.254	0.267	0.246	0.789	0.798	0.703	0.774	0.805	0.954	0.84	1.06	0.914	0.895	0.716	0.69	0.561	0.647	0.802
EMC-BAC-2	1.21	1.09	0.985	1.09	0.676	1	0.862		0.947	0.869	0.81	0.756	0.836	0.791	0.82	0.502	0.471	0.267	0.51	0.34
NCI-H1355	0.691	0.701	0.77	0.513	0.651	0.354	0.364	0.342	0.325	0.335	0.774	0.854	0.825	0.864	0.885	0.447	0.39	0.333	0.359	0.36
ABC-1	0.373	0.496	0.594	0.52	0.396	1	1.16	1.05	0.883	0.795	0.83	0.71	0.861	0.855	0.977	0.232	0.259	0.245	0.217	0.201
NCI-H727	0.299	0.402	0.244	0.336	0.369	0.856	0.753	0.904	0.87	0.611	0.319	0.188	0.35	0.269	0.26	0.566	0.76	0.791	0.589	0.441
NCI-H1666	1.02	0.925	1.11	1.03	0.735	0.747	0.726	0.84	0.666	0.674	0.738	0.862	0.906	0.829	0.858	0.512	0.515	0.605	0.486	0.464
NCI-H2126	0.796	0.867	0.876	0.82	0.651	0.625	0.573	0.59	0.53	0.539	0.687	0.667	0.761	0.739	0.696	0.537	0.505	0.55	0.485	0.456
NCI-H1793	0.261	0.192	0.18	0.258	0.134	0.394	0.371	0.305	0.204	0.196	0.841	0.921	0.638	0.813	1.02	0.446	0.29	0.281	0.294	0.228
LCLC-97TM1	0.725	0.722	0.773	0.415	0.256	0.213	0.237	0.225	0.262	0.215			0.221	0.164	0.173	0.369	0.327	0.397	0.339	0.264
COR-L23	0.581	0.647		0.68	0.514	0.393	0.384		0.386	0.352	0.771	1.04	0.852	1.1	0.884	0.412	0.408		0.39	0.393
HARA	0.585			0.675	0.49	0.506	0.49		0.506	0.369	0.821	0.95	1.01	0.993	0.935	0.455			0.396	0.386
NCI-H2023	0.73	0.685	0.862	0.76	0.472	0.212	0.195	0.209	0.174	0.195	0.743	0.694	0.612	0.677	0.546	0.441		0.395	0.35	0.342
NCI-H1792	0.46		0.533	0.358	0.454	0.559	0.472	0.589	0.428	0.43	0.436	0.551	0.523	0.6	0.65	0.267	0.258	0.185	0.529	0.318
LC-2-ad	0.851	0.889	0.701	0.886	0.54	0.746	0.803	0.866	0.776	0.793	0.782	0.886	0.775	0.845	0.863	0.635	0.499	0.495	0.568	0.432
LXF-289	0.648	0.639	0.785	0.627	0.507	0.388	0.376	0.403	0.394	0.406	0.885	1.01	0.965	0.957	0.939	0.506	0.445	0.408	0.53	0.515

Cell Line	relative viability ([1]; first compound 0.5 µM)	relative viability ([1]; first compound 1.581 µM)	relative viability ([1]; first compound 5 µM)	relative viability ([1]; first compound 15.81 µM)	relative viability ([1]; first compound 50 µM)	relative viability ([2]; first compound 0.5 µM)	relative viability ([2]; first compound 1.581 µM)	relative viability ([2]; first compound 5 µM)	relative viability ([2]; first compound 15.81 µM)	relative viability ([2]; first compound 50 µM)	relative viability ([3]; first compound 0.08 µM)	relative viability ([3]; first compound 0.253 µM)	relative viability ([3]; first compound 0.8 µM)	relative viability ([3]; first compound 2.53 µM)	relative viability ([3]; first compound 8 µM)	relative viability ([4]; first compound 0.5 µM)	relative viability ([4]; first compound 1.581 µM)	relative viability ([4]; first compound 5 µM)	relative viability ([4]; first compound 15.81 µM)	relative viability ([4]; first compound 50 µM)
NCI-H2347	0.529	0.405	0.341		0.435	0.584	0.606	0.57	0.58	0.503	1.01	0.893	0.891	0.887	0.988	0.324	0.384	0.507		0.499
RERF-LC-KJ	1.23	1.17	1.31	1.12	0.584	0.624	0.605	0.602	0.654	0.417	0.904	0.902	0.972	0.876	0.896	0.424	0.441	0.401	0.417	0.341
NCI-H596	0.981	0.969	1.23	0.941	0.807	0.923	1.03	0.906	0.773	1.02	1.1	1.01	1.01	1.04	1.1	0.821	0.67	0.626	0.633	0.732
NCI-H1734	0.209	0.167	0.181	0.186	0.155	0.542	0.447	0.507	0.492	0.376	0.787	0.871	0.965	0.877	0.934	0.425	0.365	0.328	0.332	0.31
NCI-H1915	0.824	0.791		0.657	0.613	0.253	0.235		0.239	0.247	1.09	1.12	1.09	1.1	1.11	0.36	0.327		0.369	0.388
NCI-H838	0.299	0.335		0.247	0.168	0.459	0.363	0.407	0.406	0.316	0.921	1	0.97	0.971	0.79	0.798	0.465		0.528	0.487
HCC-15	0.232		0.304	0.174	0.268	0.696	0.492	0.581	0.536	0.38	0.815	0.946	0.874	0.879	0.879	0.458		0.376	0.384	0.344
NCI-H650	0.688	0.682	0.597	0.749	0.519	0.289	0.326		0.283	0.334	0.539	0.805	0.8	1.26	0.779	0.455	0.419	0.322	0.422	0.423
NCI-H1651	0.703	0.728	0.727	0.701	0.625	0.599	0.622	0.599	0.537	0.508	0.886	1.07	1.04	0.989	1	0.294	0.308	0.348	0.384	0.392
NCI-H2405	0.774	0.674		0.511	0.653	0.719	0.781		0.689	0.757	0.973		1.04	0.937	0.747	0.442	0.386		0.335	0.366
LU99A	0.201	0.267		0.244	0.223	0.791	0.725		0.846	0.554	0.419	0.556	0.589	0.502	0.557	0.866	0.671		0.757	0.554
H3255	0.752	0.726	0.693	0.827	0.683	0.619		0.593	0.463	0.409	0.9	0.987	0.961	0.998	0.902	0.331	0.381	0.36	0.312	0.365
NCI-H1993	0.885	0.803	0.779	0.525	0.494	0.643	0.554	0.388	0.6	0.507	0.689	0.731	0.782	0.789	0.704	0.476	0.545	0.555	0.548	0.456
NCI-H322M	0.857	0.756	0.953	0.646	0.542	0.687	0.687	0.81	0.379	0.671	0.937	0.884	0.868	0.991	0.842	0.788	0.553	0.806	0.729	0.545
NCI-H460	0.0274	0.0313	0.03	0.0363	0.0333	0.444		0.411	0.429	0.47	0.719	0.824	0.65	0.787	0.244	0.515	0.365	0.361	0.472	0.398
NCI-H358	0.292	0.304	0.354	0.397	0.337	0.206		0.216	0.177	0.159	0.868	0.744	0.65	0.75	0.461	0.443	0.264	0.349	0.266	0.255
NCI-H1395	0.529	0.621	0.62	0.723	0.536	0.781	0.718	0.632	0.751	0.661	0.986	1.1	1.28	1.37	1.05	0.418	0.459	0.372	0.421	0.443
